Read-outs that look alike come from different tables or passages of the source.
Legend:
LNCaP cells = assay: Internalization of radiolabelled ligands into LNCaP cells; format: cell-based
Experimental: Subsequent to the removal of the culture medium, the cells were washed once with 500 μL DMEM-F12 (5% BSA) and left to equilibrate for at least 15 min at 37° C. in 200 μL DMEM-F12 (5% BSA). Each well was treated with either 25 μL of either DMEM-F12 (5% BSA) or a 100 μM PMPA solution for blockade. […] The experiment was terminated by placing the 24-well plate on ice for 3 min and consecutive removal of the medium. Each well was rinsed with 250 μL HBSS and the fractions from these first two steps combined, representing the amount of free radioligand. Removal of surface bound activity was accomplished by incubation of the cells with 250 μL of ice-cold PMPA (10 μM in PBS) solution for 5 min and rinsed again with another 250 μL of ice-cold PBS. The internalized activity was determined by incubation of the cells in 250 μL 1 M NaOH and the combination with the fraction of a subsequent wash step with 250 μL 1.0 M NaOH. Each experiment (control and blockade) was performed in triplicate. Free, surface bound and internalized activity was quantified in a γ-counter. […] Data were corrected for non-specific internalization and normalized to the specific-internalization observed for the radioiodinated reference compound.

[1] = Octanol-water partition coefficient (log D) of radiolabelled ligands; format: physicochemical; conditions: n-octanol/PBS, n = 6
Experimental: Approximately 1 MBq of the labelled tracer was dissolved in 1 mL of a 1:1 mixture (by volumes) of phosphate buffered saline (PBS, pH 7.4) and n-octanol in an Eppendorf tube. After vigorous mixing of the suspension for 3 minutes at room temperature, the vial was centrifuged at 15000 g for 3 minutes (Biofuge 15, Heraus Sepatech, Osterode, Germany) and 100 μL aliquots of both layers were measured in a gamma counter. The experiment was repeated at least six times.

PSMA = target: T1, PSMA (Homo sapiens, UniProt Q04609); assay: Determination of PSMA affinity (IC50), competition with ([125I]I-BA)KuE on LNCaP cells; format: binding; conditions: ([125I]I-BA)KuE 0.2 nM, 1 h, 4° C., mean ± SD, read-out: IC50
T1 construct: endogenous in cells; host or cells: LNCaP cells
T1 sequence (Q04609 whole entry): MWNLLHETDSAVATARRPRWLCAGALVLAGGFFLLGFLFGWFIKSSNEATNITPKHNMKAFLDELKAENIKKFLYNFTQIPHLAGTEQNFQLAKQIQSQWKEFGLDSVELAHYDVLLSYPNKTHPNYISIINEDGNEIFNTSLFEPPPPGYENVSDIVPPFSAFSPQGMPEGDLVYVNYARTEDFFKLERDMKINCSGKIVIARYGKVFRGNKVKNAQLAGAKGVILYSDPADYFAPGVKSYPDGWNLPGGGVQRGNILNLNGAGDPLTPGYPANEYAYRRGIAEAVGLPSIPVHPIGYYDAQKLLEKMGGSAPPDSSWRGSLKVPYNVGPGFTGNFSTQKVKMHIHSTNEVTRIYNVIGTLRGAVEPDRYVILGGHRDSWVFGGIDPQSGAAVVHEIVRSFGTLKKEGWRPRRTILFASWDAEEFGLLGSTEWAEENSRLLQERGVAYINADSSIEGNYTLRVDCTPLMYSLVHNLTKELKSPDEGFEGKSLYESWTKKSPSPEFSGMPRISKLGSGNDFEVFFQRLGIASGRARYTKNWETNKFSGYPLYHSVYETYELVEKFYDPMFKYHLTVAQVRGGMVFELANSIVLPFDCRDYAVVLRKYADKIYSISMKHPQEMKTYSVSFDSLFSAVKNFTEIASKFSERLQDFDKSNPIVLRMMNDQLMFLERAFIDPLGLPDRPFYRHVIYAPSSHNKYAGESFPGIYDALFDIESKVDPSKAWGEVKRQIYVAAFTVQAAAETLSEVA
Experimental: After removal of the culture medium, the cells were treated once with 500 μL of HBSS (Hank's balanced salt solution, Biochrom, Berlin, Germany, with addition of 1% bovine serum albumin (BSA)) and left 15 min on ice for equilibration in 200 μL HBSS (1% BSA). […] Quantification of bound and free radioligand was accomplished in a γ-counter.

[2] = system: recurrent prostate cancer; assay: PET/MR with 68Ga-labelled PSMA-SIFA3 (7) in one subject; format: in vivo, human; conditions: 144 MBq, PET/MR 66 min after injection, one subject with biochemical recurrence
Experimental: As a proof on concept investigation of a ^68Ga-labelled SiFA substituted chelator-based PET tracers one subject with biochemical recurrence after radical prostatectomy (PSA 0.44 ng/ml, pT2c, pNO, Gleason 7b) underwent PET/MR 66 min after injection of 144 MBq ^68Ga-labelled PSMA-SIFA3 (7).

Human Serum Albumin = Human Serum Albumin (Homo sapiens, UniProt P02768); assay: HSA binding on Chiralpak HSA column; format: in vitro ADME
Sequence of Human Serum Albumin (P02768 25-609): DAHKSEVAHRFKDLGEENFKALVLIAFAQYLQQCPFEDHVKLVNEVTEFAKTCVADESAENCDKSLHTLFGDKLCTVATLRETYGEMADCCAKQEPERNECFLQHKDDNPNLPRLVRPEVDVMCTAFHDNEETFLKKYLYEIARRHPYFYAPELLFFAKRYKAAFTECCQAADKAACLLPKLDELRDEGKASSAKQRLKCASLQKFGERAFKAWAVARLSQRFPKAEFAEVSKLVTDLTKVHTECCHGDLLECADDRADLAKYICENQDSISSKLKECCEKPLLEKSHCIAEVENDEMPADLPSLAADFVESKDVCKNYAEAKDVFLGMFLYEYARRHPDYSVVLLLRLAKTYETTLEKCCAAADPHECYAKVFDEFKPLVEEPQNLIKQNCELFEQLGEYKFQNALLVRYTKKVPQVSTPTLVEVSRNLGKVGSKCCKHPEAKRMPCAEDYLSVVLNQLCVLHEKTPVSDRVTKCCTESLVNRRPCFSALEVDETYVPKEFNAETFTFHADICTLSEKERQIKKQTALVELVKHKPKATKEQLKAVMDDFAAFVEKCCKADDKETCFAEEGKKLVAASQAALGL
Experimental: The mobile phase (A: NH4OAc, 50 mM in water, pH 7 and B: isopropanol) was freshly prepared for each experiment and only used for one day. The column was kept at room temperature and each run was stopped after detection of the signal to reduce the acquisition time. All substances were dissolved in a 0.5 mg/ml concentration in 50% 2-propanol and 50% 50 mM pH 6.9 ammonium acetate buffer. […] All nine reference substances (see Table 1) were injected consecutively to establish a non-linear regression with OriginPro 2016G; see FIG. 1.

[3] = in vivo
[4] = system: prostate cancer tumor lesions; assay: Human PET uptake in and detection of prostate cancer tumor lesions with 18F-labelled PSMA-SIFA3 (7); format: in vivo
From the text: Gluteal muscle served as background.

[5] = 18F-labelled, of 72 lesions analysed
[6] = 35 lesions with no correlate or small size on morphological imaging, 18F-labelled, human PET
[7] = bone metastases (n=21), 18F-labelled, human PET
[8] = local tumor (n=24), 18F-labelled, human PET
[9] = lymph node metastases (n=23), 18F-labelled, human PET
[10] = tumor lesions, 18F-labelled, human PET, n = 72
[11] = visceral metastases (n=4), 18F-labelled, human PET

Which Internalization (LNCaP cells; 18F-L, 0.5 nM, 1 hour, 37° C., % of reference ligand ([125I]I-BA)KuE, mean ± SD) does the source give for CC(C)(C)[Si](F)(c1ccc(C(=O)NC[C@@H](NC(=O)CCC(C(=O)O)N2CCN(CC(=O)O)CCN(CC(=O)O)CCN(CC(=O)O)CC2)C(=O)N[C@H](CCCCNC(=O)CCC(=O)NCCC[C@@H](NC(=O)CC[C@H](NC(=O)N[C@@H](CCC(=O)O)C(=O)O)C(=O)O)C(=O)O)C(=O)O)cc1)C(C)(C)C (some centres unmarked) [ligand 7, PSMA-SIFA3] here?
The Internalization was 164.8 ± 4.5%.

And the Internalization (LNCaP cells; 177Lu-natF-L, 0.5 nM, 1 hour, 37° C., % of reference ligand ([125I]I-BA)KuE, mean ± SD)?
Its Internalization is 185.8 ± 4.5%.

What about the Internalization (LNCaP cells; 1 h, 0.0005 µM) of the same compound?
Its Internalization is 126.0 ± 13.1%.

And the logD ([1]; pH 7.4, 18F-L)?
Its logD is -1.98 ± 0.04.

What about the logD ([1]; pH 7.4, 68Ga-natF-L) of the same compound?
The logD was -3.18 ± 0.05.

And the logD ([1]; pH 7.4, 177Lu-natF-L)?
The logD was -4.2 ± 0.09.

And the IC50 (PSMA; natF-L (uncomplexed))?
The IC50 was 3.5 ± 0.2 nM.

What about the IC50 (PSMA; natGa-natF-L) of the same compound?
The IC50 was 3 ± 0.7 nM.

And the IC50 (PSMA; natLu-natF-L)?
The IC50 was 3.9 ± 0.5 nM.

What about the “uptake in lesion (proof of concept)” value [2] of the same compound?
Its value is “Uptake typical for recurrent prostate cancer is demonstrated in a 2 mm lymph node”.

And the HSA binding (Human Serum Albumin; natGa-natF-L)?
Its HSA binding is 95.7%.

And the HSA binding (Human Serum Albumin; natLu-natF-L)?
The HSA binding was 97.7%.

And the “adverse events / clinically detectable pharmacological effects” value [3]?
The value was “No adverse events or clinically detectable pharmacological effects were noted”.

What about the SUVmax max [4] of the same compound?
Its SUVmax max is 25.

What about the SUVmean max [4] of the same compound?
The SUVmean max was 28.3.

And the “ratio SUVmax to background max” value [4]?
The value was 43.8.

And the “ratio SUVmean to background max” value [4]?
The value was 56.6.

And the “patients in whom lesions indicative for prostate cancer were detected” value ([4]; 18F-labelled, 53 subjects imaged (primary staging n=6, recurrent disease n=47))?
Its value is 39 patients.

What about the “lesions with no correlate on morphological imaging” value [4, 5] of the same compound?
The value was 21 lesions.

And the “lesions with size of equal or less than 5 mm on morphological imaging” value [4, 5]?
Its value is 14 lesions.

What about the “uptake in prostate cancer lesions (individual patient images)” value ([4]; 18F-labelled, single patients, FIG. 26 and FIG. 27) of the same compound?
Its value is “high uptake”.

And the SUVmax mean [4, 6]?
Its SUVmax mean is 16.7.

And the SUVmax min [4, 6]?
The SUVmax min was 9.2.

What about the SUVmean mean [4, 6] of the same compound?
The SUVmean mean was 13.3.

What about the SUVmean min [4, 6] of the same compound?
Its SUVmean min is 6.4.

What about the “ratio SUVmax to background mean” value [4, 6] of the same compound?
The value was 18.3.

And the “ratio SUVmax to background min” value [4, 6]?
The value was 5.8.

And the “ratio SUVmean to background mean” value [4, 6]?
Its value is 22.9.

And the “ratio SUVmean to background min” value [4, 6]?
The value was 7.1.

And the SUVmax max [4, 7]?
Its SUVmax max is 95.4.

What about the SUVmax mean [4, 7] of the same compound?
Its SUVmax mean is 31.2.

What about the SUVmax min [4, 7] of the same compound?
Its SUVmax min is 7.9.

And the SUVmean max [4, 7]?
The SUVmean max was 71.7.

And the SUVmean mean [4, 7]?
The SUVmean mean was 22.2.

What about the SUVmean min [4, 7] of the same compound?
Its SUVmean min is 5.3.

What about the “ratio SUVmax to background max” value [4, 7] of the same compound?
Its value is 73.4.

What about the “ratio SUVmax to background mean” value [4, 7] of the same compound?
The value was 32.8.

And the “ratio SUVmax to background min” value [4, 7]?
The value was 7.9.

What about the “ratio SUVmean to background max” value [4, 7] of the same compound?
The value was 80.

What about the “ratio SUVmean to background mean” value [4, 7] of the same compound?
The value was 36.6.

What about the “ratio SUVmean to background min” value [4, 7] of the same compound?
Its value is 8.8.

And the SUVmax max [4, 8]?
Its SUVmax max is 75.1.

What about the SUVmax mean [4, 8] of the same compound?
Its SUVmax mean is 26.9.

And the SUVmax min [4, 8]?
Its SUVmax min is 4.

And the SUVmean max [4, 8]?
Its SUVmean max is 19.3.

What about the SUVmean mean [4, 8] of the same compound?
Its SUVmean mean is 19.3.

What about the SUVmean min [4, 8] of the same compound?
The SUVmean min was 2.7.

What about the “ratio SUVmax to background max” value [4, 8] of the same compound?
Its value is 83.4.

What about the “ratio SUVmax to background mean” value [4, 8] of the same compound?
Its value is 29.6.

And the “ratio SUVmax to background min” value [4, 8]?
Its value is 5.

What about the “ratio SUVmean to background max” value [4, 8] of the same compound?
The value was 83.2.

And the “ratio SUVmean to background mean” value [4, 8]?
Its value is 32.4.

What about the “ratio SUVmean to background min” value [4, 8] of the same compound?
The value was 5.4.

And the SUVmax max [4, 9]?
Its SUVmax max is 67.5.

What about the SUVmax mean [4, 9] of the same compound?
The SUVmax mean was 22.2.

What about the SUVmax min [4, 9] of the same compound?
Its SUVmax min is 8.1.

And the SUVmean max [4, 9]?
The SUVmean max was 44.6.

And the SUVmean mean [4, 9]?
Its SUVmean mean is 16.6.

What about the SUVmean min [4, 9] of the same compound?
The SUVmean min was 6.4.

What about the “ratio SUVmax to background max” value [4, 9] of the same compound?
The value was 63.6.

What about the “ratio SUVmax to background mean” value [4, 9] of the same compound?
Its value is 23.7.

And the “ratio SUVmax to background min” value [4, 9]?
The value was 5.8.

What about the “ratio SUVmean to background max” value [4, 9] of the same compound?
The value was 70.7.

And the “ratio SUVmean to background mean” value [4, 9]?
Its value is 27.3.

What about the “ratio SUVmean to background min” value [4, 9] of the same compound?
Its value is 7.1.

What about the SUVmax max [4, 10] of the same compound?
The SUVmax max was 95.4.

What about the SUVmax mean [4, 10] of the same compound?
Its SUVmax mean is 26.6.

What about the SUVmax min [4, 10] of the same compound?
Its SUVmax min is 4.0.

What about the SUVmean max [4, 10] of the same compound?
The SUVmean max was 71.7.

What about the SUVmean mean [4, 10] of the same compound?
Its SUVmean mean is 19.2.

And the SUVmean min [4, 10]?
Its SUVmean min is 2.7.

And the “ratio SUVmax to background max” value [4, 10]?
Its value is 83.4.

And the “ratio SUVmax to background mean” value [4, 10]?
Its value is 28.6.

And the “ratio SUVmax to background min” value [4, 10]?
Its value is 5.0.

What about the “ratio SUVmean to background max” value [4, 10] of the same compound?
The value was 83.2.

What about the “ratio SUVmean to background mean” value [4, 10] of the same compound?
Its value is 31.9.

What about the “ratio SUVmean to background min” value [4, 10] of the same compound?
The value was 5.4.

And the SUVmax max [4, 11]?
The SUVmax max was 32.5.

And the SUVmax mean [4, 11]?
Its SUVmax mean is 26.1.

And the SUVmax min [4, 11]?
Its SUVmax min is 20.4.

What about the SUVmean max [4, 11] of the same compound?
The SUVmean max was 19.1.

What about the SUVmean mean [4, 11] of the same compound?
The SUVmean mean was 17.4.

What about the SUVmean min [4, 11] of the same compound?
Its SUVmean min is 15.5.

What about the “ratio SUVmax to background max” value [4, 11] of the same compound?
The value was 40.6.

And the “ratio SUVmax to background mean” value [4, 11]?
The value was 28.9.

What about the “ratio SUVmax to background min” value [4, 11] of the same compound?
Its value is 18.5.

What about the “ratio SUVmean to background max” value [4, 11] of the same compound?
Its value is 38.2.

What about the “ratio SUVmean to background mean” value [4, 11] of the same compound?
The value was 30.2.

And the “ratio SUVmean to background min” value [4, 11]?
Its value is 22.1.

Reference: patent US11413360B2, “Dual mode radiotracer and—therapeutics” (priority 2017, dated 2022)
